Results on nine compounds are retold here after patent US5008260A, “Cephem derivatives” (Eisai Co., Ltd., priority 1985, dated 1991).

In brackets after ≈: the same amount, converted by molar mass.

The conditions of data set [1]: mouse, intravenous injection; prior-art compound; cited from earlier work.
In data set [2] the test system is Citrobacter freundii EC-34. The data set is described as follows: Antibacterial activity (MIC), Citrobacter freundii EC-34. It counts as cell-based. To be noted: EC34; Citrobacter freundii EC-34, lactamase producing bacteria.
A short description of data set [3]: Acute toxicity LD50 (mouse, intravenous injection). The note with it: in vivo.
Data set [4] relates to Pseudomonas maltophilia E04004. The data set is described as follows: Antibacterial activity (MIC), Pseudomonas maltophilia E04004. The format is cell-based. The note with it: Stenotrophomonas maltophilia.
For data set [5], the system named is Pseudomonas aeruginosa EP-01. Kind of data set: Antibacterial activity (MIC), Pseudomonas aeruginosa EP-01. The format is cell-based. To be noted: EP01.
For data set [6], the system named is Staphylococcus aureus 209-P. Kind of data set: Antibacterial activity (MIC), Staphylococcus aureus 209-P. It counts as cell-based.
For data set [7], the system named is Serratia marcescens ES-75. Kind of data set: Antibacterial activity (MIC), Serratia marcescens ES-75. The format is cell-based. To be noted: ES75.
The test system of another data set is Escherichia coli NIHJ. The data set is described as follows: Antibacterial activity (MIC), Escherichia coli NIHJ. It counts as cell-based.
In data set [8] the test system is Staphylococcus aureus E31106. Kind of data set: Antibacterial activity (MIC), Staphylococcus aureus E31106. The note with it: Staphylococcus aureus E31106, lactamase producing bacteria. The format is cell-based.

For the compound `CO/N=C(\C(=O)N[C@@H]1C(=O)N2C(C(=O)[O-])=C(C[N+]34CCC(CC3)CC4)CS[C@H]12)c1csc(N)n1` [7β-[(Z)-2-(2-aminothiazol-4-yl)-2-methoxyiminoacetamido]-3-(1-quinuclidinio)methyl-3-cephem-4-carboxylate], the “acute toxic value LD50” value in data set [1] is listed as no more than 100 mg/kg.

As for `CO/N=C(\C(=O)N[C@@H]1C(=O)N2C(C(=O)[O-])=C(C[N+]34CCC(O)(CC3)C4)CS[C@H]12)c1csc(N)n1` [Example 1, 7β-[(Z)-2-(2-Aminothiazol-4-yl)-2-methoxyiminoacetamido]-3-(4-hydroxy-1,4-methylene-1-piperidinio)methyl-3-cephem-4-carboxylate], the MIC was found to be 0.1 µg/mL (≈ 0.197 µM) in data set [2]; 25 µg/mL (≈ 49.2 µM) in data set [4]; 1.56 µg/mL (≈ 3.07 µM) in data set [5]; 0.8 µg/mL (≈ 1.57 µM) in [6]; 0.1 µg/mL (≈ 0.197 µM) in [7]; 0.05 µg/mL (≈ 0.0983 µM) with Escherichia coli NIHJ. The same compound yielded an MIC in [8] of 100 µg/mL (≈ 197 µM). The compound further gave an LD50 in data set [3] greater than 3000 mg/kg.

Consider `CO/N=C(\C(=O)N[C@@H]1C(=O)N2C(C(=O)[O-])=C(C[N+]34CCC(O)(CC3)C4)CS[C@H]12)c1nsc(N)n1` [Example 2, 7β-[(Z)-2-(5-Amino-1,2,4-thiadiazol-3-yl)-2-methoxyiminoacetamido]-3-(4-hydroxy-1,4-methylene-1-piperidinio)methyl-3-cephem-4-carboxylate], for which the MIC in data set [2] worked out at 0.1 µg/mL (≈ 0.196 µM); in data set [4] it was 12.5 µg/mL (≈ 24.5 µM); in data set [5], 0.8 µg/mL (≈ 1.57 µM); in data set [6], 0.8 µg/mL (≈ 1.57 µM); in [7], 0.2 µg/mL (≈ 0.392 µM); against Escherichia coli NIHJ it was 0.1 µg/mL (≈ 0.196 µM). In data set [8], this compound displayed a minimum inhibitory concentration (MIC) of 50 µg/mL (≈ 98.1 µM). The compound also displayed a 50% lethal dose (LD50) in [3] greater than 3000 mg/kg.

As for `CO/N=C(\C(=O)N[C@@H]1C(=O)N2C(C(=O)[O-])=C(C[N+]34CCC(O)(CC3)CC4)CS[C@H]12)c1csc(N)n1` [Example 3, 7β-[(Z)-2-(2-Aminothiazol-4-yl)-2-methoxyiminoacetamido]-3-(4-hydroxy-1-quinuclidinio)methyl-3-cephem-4-carboxylate], the MIC was found to be 0.1 µg/mL (≈ 0.191 µM) in [2]; 6.25 µg/mL (≈ 12 µM) in data set [4]; 1.56 µg/mL (≈ 2.99 µM) in data set [5]; 0.8 µg/mL (≈ 1.53 µM) in data set [6]; 0.1 µg/mL (≈ 0.191 µM) in [7]; 0.05 µg/mL (≈ 0.0957 µM) in the data set with Escherichia coli NIHJ. In [8], this compound registered an MIC of 100 µg/mL (≈ 191 µM). Besides, the LD50 in data set [3] was greater than 3000 mg/kg.

Consider `CO/N=C(\C(=O)N[C@@H]1C(=O)N2C(C(=O)[O-])=C(C[N+]34CCC(O)(CC3)CC4)CS[C@H]12)c1nsc(N)n1` [Example 4, 7β-[(Z)-2-(5-Amino-1,2,4-thiadiazol-3-yl)-2-methoxyiminoacetamido]-3-(4-hydroxy-1-quinuclidinio)methyl-3-cephem-4-carboxylate], for which the MIC was found to be 0.1 µg/mL (≈ 0.191 µM) in data set [2]; 6.25 µg/mL (≈ 11.9 µM) in data set [4]; 0.8 µg/mL (≈ 1.53 µM) in data set [5]; 1.56 µg/mL (≈ 2.98 µM) in data set [6]; 0.2 µg/mL (≈ 0.382 µM) in data set [7]; 0.1 µg/mL (≈ 0.191 µM) in the data set on Escherichia coli NIHJ. In data set [8], this compound gave an MIC of 25 µg/mL (≈ 47.7 µM). Besides, the LD50 in [3] is greater than 3000 mg/kg.

As for `CO/N=C(\C(=O)N[C@@H]1C(=O)N2C(C(=O)[O-])=C(C[N+]34CCC(C(N)=O)(CC3)CC4)CS[C@H]12)c1csc(N)n1` [Example 5, 7β-[(Z)-2-(2-Aminothiazol-4-yl)-2-methoxyiminoacetamido]-3-(4-carbamoyl-1-quinuclidinio)methyl-3-cephem-4-carboxylate], the MIC stood at 0.1 µg/mL (≈ 0.182 µM) in data set [2]; 12.5 µg/mL (≈ 22.7 µM) in data set [4]; 1.56 µg/mL (≈ 2.84 µM) in [5]; 1.56 µg/mL (≈ 2.84 µM) in data set [6]; 0.05 µg/mL (≈ 0.091 µM) in data set [7]; 0.05 µg/mL (≈ 0.091 µM) in the data set on Escherichia coli NIHJ. Also, in data set [8], the MIC turned out to be 100 µg/mL (≈ 182 µM). In data set [3], this compound displayed an LD50 greater than 3000 mg/kg.

For the compound `CO/N=C(\C(=O)N[C@@H]1C(=O)N2C(C(=O)[O-])=C(C[N+]34CCC(C(N)=O)(CC3)CC4)CS[C@H]12)c1nsc(N)n1` [Example 6, 7β-[(Z)-2-(5-Amino-1,2,4-thiadiazol-3-yl)-2-methoxyiminoacetamido]-3-(4-carbamoyl-1-quinuclidinio)methyl-3-cephem-4-carboxylate], the MIC worked out at 0.1 µg/mL (≈ 0.182 µM) in data set [2]; 3.13 µg/mL (≈ 5.68 µM) in [4]; 0.4 µg/mL (≈ 0.726 µM) in [5]; 3.13 µg/mL (≈ 5.68 µM) in data set [6]; 0.2 µg/mL (≈ 0.363 µM) in data set [7]; 0.1 µg/mL (≈ 0.182 µM) against Escherichia coli NIHJ. For the same compound, 25 µg/mL (≈ 45.4 µM) was the least that counted as inhibitory in data set [8] (MIC). The LD50 in data set [3] is greater than 3000 mg/kg.

For the compound `CO/N=C(\C(=O)N[C@@H]1C(=O)N2C(C(=O)[O-])=C(C[N+]34CCC(CO)(CC3)CC4)CS[C@H]12)c1nsc(N)n1` [Example 14, 7β-[(Z)-2-(5-Amino-1,2,4-thiadiazol-3-yl)-2-methoxyiminoacetamido]-3-[4-hydroxymethyl-1-quinuclidinio]methyl-3-cephem-4-carboxylate], the MIC in [2] was 0.1 µg/mL (≈ 0.186 µM); in data set [4] it was 3.13 µg/mL (≈ 5.82 µM); in data set [5], 0.8 µg/mL (≈ 1.49 µM); in data set [6] it was 1.56 µg/mL (≈ 2.9 µM); in [7] it was 0.2 µg/mL (≈ 0.372 µM); against Escherichia coli NIHJ it was 0.1 µg/mL (≈ 0.186 µM). Besides, the MIC in [8] came to 50 µg/mL (≈ 93 µM).

As for `CO/N=C(\C(=O)N[C@@H]1C(=O)N2C(C(=O)[O-])=C(C[N+]34CCC(C)(CC3)CC4)CS[C@H]12)c1nsc(N)n1` [Example 15, 7β-[(Z)-2-(5-Amino-1,2,4-thiadiazol-3-yl)-2-methoxyiminoacetamido]-3-(4-methyl-1-quinuclidinio)methyl-3-cephem-4-carboxylate], the MIC in data set [2] was determined as 0.05 µg/mL (≈ 0.0959 µM); in data set [4], 1.56 µg/mL (≈ 2.99 µM); in data set [5], 0.8 µg/mL (≈ 1.53 µM); in data set [6], 0.8 µg/mL (≈ 1.53 µM); in data set [7], 0.2 µg/mL (≈ 0.383 µM); against Escherichia coli NIHJ, 0.05 µg/mL (≈ 0.0959 µM). The MIC in data set [8] was 50 µg/mL (≈ 95.9 µM).
